Tested on: protein titer of dupilumab production cell culture
Test: LC-MS analysis of HEPES related impurities and titer correlation evaluation across cell culture production runs
Type: cell-based
Settings: for Pearson Correlation Coefficient, 5 HEPES salt lots / Pearson Correlation Coefficient, 7 CDM1B lots (Geel) / Pearson Correlation Coefficient, 20 CDM1B lots (Rens): correlation of impurity abundance with final titer; for Pearson Correlation Coefficient, 7 CDM1B lots (Geel): 7 CDM1B media lots; for Pearson Correlation Coefficient, 20 CDM1B lots (Rens): 20 CDM1B media lots; for correlation of impurity abundance with titer: dupilumab production runs, Site 1 (20 runs) and Site 2 (7 runs)
Method: ANOVA analysis of the lot genealogy of 53 different components of a chemically defined media was performed between lots utilized in “high titer” performing cell culture runs and “low titer” performing cell culture runs. HEPES acid and salt were identified as “high risk” components, showing the strongest correlation with final titer (the correlation was stronger than the correlation between the titer and media as whole). HEPES also was identified as a “high risk component” in an independent risk-based analysis that considered the weight fractions of components in the media formulation, components' COA purity and their manufacturing methods.
Following identification of HEPES as a “high risk” component with strong correlation to final titer, an analysis of the chemical composition of HEPES buffer lots was performed, including LC-MS and titer correlations evaluations.
Large scale production runs were performed at multiple sites to produce dupilumab. […] Based on the findings, and in accordance with the inventions, improved protein titer may be obtained by using media having reduced HEPES related impurities, in accordance with the inventions.
FIG. 1 illustrates the relation between relative amounts of HEPES+[O2]−[H2] and protein titer. […] Summary of fit data is shown below each graph of FIGS. 2A and 2B.
FIG. 3 illustrates the relation between relative amounts of HEPES−[CH4] and protein titer. […] Summary of fit data is shown below each graph of FIGS. 4A and 4B.

| Compound | Pearson Correlation Coefficient, 5 HEPES salt lots | Pearson Correlation Coefficient, 7 CDM1B lots (Geel) | Pearson Correlation Coefficient, 20 CDM1B lots (Rens) | correlation of impurity abundance with titer |
| --- | --- | --- | --- | --- |
| C=CS(=O)(=O)O [Vinylsulfonic acid] | −0.60 | 0.41 | 0.16 |  |
| CC(=O)NCS(=O)(=O)O [Acetamidomethane-sulfonic acid] | −0.81 | −0.34 | −0.78 |  |
| O=CN1CCN(CCS(=O)(=O)O)CC1 [HEPES−[CH4]] | −0.85 | −0.83 | −0.68 | negative correlation with titer |
| O=CN(CCO)CCN(C=O)CCS(=O)(=O)O [HEPES+[O2]−[H2]] | −0.82 | −0.68 | −0.77 | negative correlation with titer |
| O=S(=O)(O)CC(O)O [2,2-Dihydroxyethane-sulfonic acid] | −0.85 |  |  |  |
